The values below come from ChEMBL document CHEMBL1201862, “PubChem BioAssay data set” (2004).

SMILES strings stand for the structures.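 How tested: cells in 96-well plates exposed to compound for 48 hours at five concentrations. GI50 is the concentration that inhibits growth by half.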 The source made the active and inactive calls. Rule as the data show it: active = GI50 up to about 1.1 µM and inactive = higher. Peptide text beside a SMILES is read from it. * marks the point of attachment. Boc = CC(C)(C)OC(=O)*

Common to all, as to experiment: inhibition of tumour cell growth, NCI panel, 48 h
Experiment [1] concerns A498.
For experiment [2], the system named is HT-29.
The test system of experiment [3] is Hs-578T.
In experiment [4] the test system is K562.
In experiment [5] the test system is KM12.
The test system of experiment [6] is M14.
The subject of experiment [7] is MCF7.
For experiment [8], the system named is MDA-MB-435.
Experiment [9] relates to MOLT-4.
In experiment [10] the test system is NCI-H522.
For experiment [11], the system named is NCI/ADR-RES.
In experiment [12] the test system is OVCAR-5.
In experiment [13] the test system is OVCAR-8.
In experiment [14] the test system is SF-539.
Experiment [15] deals with SK-OV-3.
The test system of experiment [16] is SN12C.
Experiment [17] relates to SNB-19.
In experiment [18] the test system is SNB-75.
In experiment [19] the test system is TK-10.
Experiment [20] has as its system UO-31.

Take `CC1(C)OC(=C(C#N)C#N)C(C#N)=C1/C=C/c1ccncc1`: the GI50 is 7.69 µM (inactive) in [1]; 2.11 µM (inactive) in [2]; 3.33 µM (inactive) in [3]; 3.14 µM (inactive) in experiment [4]; 3.8 µM (inactive) in experiment [5]; 2.56 µM (inactive) in [6]. Also, the GI50 is 2.04 µM (inactive) in experiment [7]; 3.45 µM (inactive) in experiment [8]; 2.03 µM (inactive) in [9]; 2.05 µM (inactive) in [10]; 2.03 µM (inactive) in experiment [11]; 2.89 µM (inactive) in experiment [12]. Besides, the GI50 in [13] is 1.75 µM (inactive); in experiment [14] it was 1.8 µM (inactive); in [15], 4.66 µM (inactive); in experiment [16] it was 2.39 µM (inactive); in [17], 2.59 µM (inactive); in [18] it was 3.05 µM (inactive). The GI50 was 2.08 µM (inactive) in [19] and 3.24 µM (inactive) in experiment [20].
As for `O=c1[nH]nc(Cc2ccccc2)n1/N=C/c1c(O)ccc2ccccc12`, the GI50 in experiment [1] is 18.5 µM (inactive); in experiment [2], 28.4 µM (inactive); in experiment [3], 19.4 µM (inactive); in experiment [4], 23.2 µM (inactive); in experiment [5], 19.7 µM (inactive); in experiment [7], 37.9 µM (inactive). Also, the GI50 in experiment [8] was 29.2 µM (inactive); in experiment [9], 26.4 µM (inactive); in [10], 16.6 µM (inactive); in experiment [11], 20.1 µM (inactive); in [13], 21 µM (inactive); in experiment [14] it was 19.8 µM (inactive). Moreover, the GI50 is 41.1 µM (inactive) in experiment [16]; 18.4 µM (inactive) in [17]; 17.7 µM (inactive) in [18]; 33 µM (inactive) in [19]; 36.1 µM (inactive) in experiment [20].
For `CC(=O)Nc1c(C)cc2c(nc3n2CCC3O)c1[N+](=O)[O-]` (stereo not given), the GI50 in [1], in [2], in experiment [3], in [4], in experiment [5] and in experiment [6] was > 100 µM (inactive) each time. The GI50 in experiment [7], in [8], in experiment [9], in experiment [10], in [11] and in experiment [12] was > 100 µM (inactive) each time. For the same molecule, the GI50 in [13], in [14], in experiment [15], in experiment [16], in experiment [17] and in experiment [18] was > 100 µM (inactive) throughout. Moreover, the GI50 in experiment [20] was > 100 µM (inactive).
Take `N#Cc1cc2c(cc1Cl)Sc1nccn1S2(=O)=O`: the GI50 was 18.3 µM (inactive) in experiment [1]; 0.977 µM (active) in experiment [2]; 2.68 µM (inactive) in experiment [3]; 2.69 µM (inactive) in experiment [4]; 5.79 µM (inactive) in [5]; 0.619 µM (active) in experiment [6]. In addition, the GI50 was 3.8 µM (inactive) in experiment [7]; 4.91 µM (inactive) in experiment [8]; 0.667 µM (active) in experiment [9]; 1.15 µM (inactive) in experiment [10]; 1.68 µM (inactive) in experiment [11]; 14.4 µM (inactive) in experiment [12]. Also, the GI50 in [13] is 2.82 µM (inactive); in [14], 3.7 µM (inactive); in experiment [15], 4.47 µM (inactive); in [16] it was 7.57 µM (inactive); in [17], 8.2 µM (inactive); in experiment [18], 7.53 µM (inactive). Besides, the GI50 in experiment [19] is 13.5 µM (inactive); in experiment [20], 5.52 µM (inactive).
For `CC(C)NC(=O)OCc1c(COC(=O)NC(C)C)c(-c2cc[n+](COC(=O)C3CCCCC3)cc2)n2c1CCC2`, the GI50 in [1], in experiment [2], in [3], in [4], in [5] and in experiment [6] was > 100 µM (inactive) in each case. Also, the GI50 in experiment [7] is 83.4 µM (inactive); in experiment [8] it was > 100 µM (inactive); in experiment [9], 40.8 µM (inactive); in experiment [10] it was > 100 µM (inactive); in experiment [11], > 100 µM (inactive); in experiment [12], > 100 µM (inactive). The GI50 was > 100 µM (inactive) in experiment [13]; 21.9 µM (inactive) in [14]; > 100 µM (inactive) in experiment [15]; > 100 µM (inactive) in [16]; > 100 µM (inactive) in experiment [17]; 43.4 µM (inactive) in [18]. Besides, the GI50 in experiment [19] and in experiment [20] was > 100 µM (inactive) throughout.
For the molecule `C=CCn1cnc2c(O)nc(Nc3ccccc3)nc21`, the GI50 in [1], in experiment [2], in experiment [3], in [5], in experiment [6] and in [7] was > 100 µM (inactive) throughout. In addition, the GI50 is > 100 µM (inactive) in experiment [8]; 12.8 µM (inactive) in experiment [9]; > 100 µM (inactive) in [10]; > 100 µM (inactive) in experiment [11]; > 100 µM (inactive) in [12]; > 100 µM (inactive) in experiment [13]. Moreover, the GI50 in experiment [14], in experiment [15], in [16], in experiment [17], in experiment [18] and in [19] was > 100 µM (inactive) throughout. Besides, the GI50 in [20] is 50.5 µM (inactive).
Turning to `CCOCC(NC(=O)C(CC(C)C)NC(=O)OC(C)(C)C)C(N)=O` (stereo not drawn) (Boc-Leu-Ser(Et)-NH2; configuration not given here), the GI50 in experiment [1], in experiment [2], in experiment [3], in experiment [5], in experiment [6] and in [7] was > 100 µM (inactive) throughout. The GI50 in [8], in experiment [9], in experiment [10], in experiment [11], in experiment [12] and in experiment [13] was > 100 µM (inactive) in each case. Moreover, the GI50 in experiment [14] is > 100 µM (inactive); in experiment [15], > 100 µM (inactive); in experiment [16] it was > 100 µM (inactive); in experiment [17], > 100 µM (inactive); in [18], 0.11 µM (active); in experiment [19], > 100 µM (inactive). Besides, in [20], the GI50 is > 100 µM (inactive).
As for `Cc1oc2c(c1C)S(=O)(=O)C(C#N)C(c1ccccc1)N2` (stereo not given), the GI50 in [1] is > 100 µM (inactive); in experiment [2], 67.6 µM (inactive); in [3], 30.9 µM (inactive); in [5] it was 50.4 µM (inactive); in [6], 40.4 µM (inactive); in experiment [7] it was 51.5 µM (inactive). The GI50 is 34.5 µM (inactive) in experiment [8]; 20.6 µM (inactive) in experiment [9]; 16.9 µM (inactive) in experiment [10]; 30.8 µM (inactive) in experiment [11]; 91.6 µM (inactive) in [12]; 40.4 µM (inactive) in [13]. Besides, the GI50 was 39.6 µM (inactive) in experiment [14]; 86.5 µM (inactive) in experiment [15]; 49.8 µM (inactive) in experiment [16]; > 100 µM (inactive) in [17]; 40.2 µM (inactive) in experiment [18]; > 100 µM (inactive) in [19]. In addition, the GI50 in experiment [20] is 41.5 µM (inactive).
`N#CC(C(=O)/C(=N/Nc1nc(S)nn1N)C(C#N)c1ccccc1)c1ccccc1` (stereo not given): the GI50 in experiment [1], in experiment [2], in experiment [3], in experiment [4], in experiment [5] and in experiment [6] was > 100 µM (inactive) in each case. Also, the GI50 in experiment [7], in experiment [8], in experiment [10], in experiment [11], in experiment [12] and in experiment [13] was > 100 µM (inactive) throughout. Moreover, the GI50 in experiment [14], in experiment [15], in experiment [16], in experiment [17], in [18] and in [19] was > 100 µM (inactive) throughout. Moreover, the GI50 in experiment [20] was > 100 µM (inactive).
`OCCN(C1=NCCN1)/[N+](=C\c1ccccn1)[CH-]c1ccccn1`: the GI50 in experiment [1], in experiment [2], in experiment [3], in experiment [4], in experiment [5] and in experiment [6] was > 100 µM (inactive) each time. The GI50 in [7], in experiment [8], in [9], in [10], in [11] and in experiment [12] was > 100 µM (inactive) throughout. Further, the GI50 in [13], in experiment [14], in experiment [15], in experiment [16], in experiment [18] and in [20] was > 100 µM (inactive) each time.
